Three molecules from US6525099B1, “N-substituted sulfonamide derivatives” (Eli Lilly and Company, priority 1998, dated 2003) can be followed below.

The target of data set [1] is T1, human GluR4B receptor (Homo sapiens, UniProt P48058).
T1 construct: expressed in transfected cells
Nature of the data set: potentiation of glutamate receptor-mediated response in HEK cells stably expressing human GluR4B (Fluo-3 calcium fluorescence). It counts as cell-based. Particulars: human GluR4B receptor expressed in HEK 293 cells. The source says: The ability of compounds of formula I to potentiate glutamate receptor-mediated response may be determined using fluorescent calcium indicator dyes (Molecular Probes, Eugene, Oreg., Fluo-3) and by measuring glutamate-evoked efflux of calcium into GluR4 transfected HEK293 cells, as described in more detail below.
In one test, 96 well plates containing confluent monolayers of HEK cells stably expressing human GluR4B (obtained as described in European Patent Application Publication Number EP-A1-583917) are prepared. The tissue culture medium in the wells is then discarded, and the wells are each washed once with 200 μl of buffer (glucose, 10 mM, sodium chloride, 138 mM, magnesium chloride, 1 mM, potassium chloride, 5 mM, calcium chloride, 5 mM, N-[2-hydroxyethyl]-piperazine-N-[2-ethanesulfonic acid], 10 mM, to pH 7.1 to 7.3). […]
Each test is then performed as follows. […] A second fluorescent reading is taken after 5 minutes incubation. 15 μl of 400 μM glutamate solution is then added to each well (final glutamate concentration 100 μM), and a third reading is taken. The activities of test compounds and cyclothiazide solutions are determined by subtracting the second from the third reading (fluorescence due to addition of glutamate in the presence or absence of test compound or cyclothiazide) and are expressed relative to enhance fluorescence produced by 100 μM cyclothiazide.

T1 sequence (P48058 21-902): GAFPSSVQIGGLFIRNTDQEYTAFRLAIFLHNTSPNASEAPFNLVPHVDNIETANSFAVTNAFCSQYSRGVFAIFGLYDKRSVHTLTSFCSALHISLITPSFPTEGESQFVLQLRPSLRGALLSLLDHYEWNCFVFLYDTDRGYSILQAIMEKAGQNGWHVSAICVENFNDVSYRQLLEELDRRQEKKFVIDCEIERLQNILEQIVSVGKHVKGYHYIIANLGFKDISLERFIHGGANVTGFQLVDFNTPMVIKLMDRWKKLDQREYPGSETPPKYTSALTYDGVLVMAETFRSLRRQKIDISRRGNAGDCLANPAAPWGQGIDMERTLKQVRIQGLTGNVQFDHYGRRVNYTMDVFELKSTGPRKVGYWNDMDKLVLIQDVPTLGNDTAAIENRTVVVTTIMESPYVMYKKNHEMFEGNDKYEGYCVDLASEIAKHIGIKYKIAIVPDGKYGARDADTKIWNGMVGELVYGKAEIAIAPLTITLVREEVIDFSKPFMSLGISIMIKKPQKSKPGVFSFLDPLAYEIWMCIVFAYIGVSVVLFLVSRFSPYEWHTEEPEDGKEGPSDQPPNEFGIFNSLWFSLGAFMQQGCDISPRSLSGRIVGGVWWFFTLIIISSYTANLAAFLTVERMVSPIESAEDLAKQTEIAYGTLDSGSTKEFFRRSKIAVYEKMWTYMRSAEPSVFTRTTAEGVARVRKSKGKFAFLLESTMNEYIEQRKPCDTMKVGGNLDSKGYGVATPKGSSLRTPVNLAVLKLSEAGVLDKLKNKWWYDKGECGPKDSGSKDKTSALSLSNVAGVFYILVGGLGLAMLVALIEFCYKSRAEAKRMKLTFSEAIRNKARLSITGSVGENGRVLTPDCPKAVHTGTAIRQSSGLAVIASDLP

Take `CC(C)(C)c1ccc(C2(CNS(=O)(=O)C(F)(F)F)CC2)cc1`: the melting point lay within 82 to 84 °C.

Molecule `CC(C)S(=O)(=O)NCC1(c2ccc(C(C)(C)C)cc2)CC1` gave a melting point of 87 to 89.5 °C. For `NS(=O)(=O)c1cc2c(cc1Cl)NC(C1CC3C=CC1C3)NS2(=O)=O` (stereo not drawn) [cyclothiazide], the “potentiation of agonist-induced excitability” value in data set [1] was “potentiate agonist-induced excitability of human GluR4B receptor”.
